Results as given in PMC12730333 (Biology, 2025).

Tests used:
[1] = test system: promastigote forms of Leishmania amazonensis PH8 strain; test: ROS production by flow cytometry, H2DCFDA, promastigotes; type: cell-based; conditions: exposed to IC50 (AA 10 µM), 24 h
[2] = test system: ex vivo amastigote forms of L. amazonensis LTB0016 strain; test: ROS production by flow cytometry, H2DCFDA, ex vivo amastigotes; type: cell-based, Leishmania amazonensis; conditions: exposed to IC50 (AA 10 µM), 24 h
[3] = test system: promastigote forms of Leishmania amazonensis PH8 strain; test: Leishmanicidal activity assay on promastigotes (Alamar Blue, 24 h); type: cell-based; conditions: Leishmania amazonensis, 10^6 parasites/mL
Experimental: Promastigote forms of Leishmania amazonensis (IFLA/BR/1967/PH8) were obtained from the Instituto Oswaldo Cruz Leishmania collection (CLIOC/Fiocruz). These cultures were maintained in Schneider’s Insect Medium, supplemented with 20% FBS and 1 μL/mL of Pen/Str at 26 °C. In vitro passages were conducted weekly, with promastigotes harvested during the late logarithmic phase for experiments on the 5th day of growth (Figure S1A).
MT was employed as the reference drug.

[4] = Cytotoxicity assay (Alamar Blue, 24 h) on L929 fibroblasts; type: cell-based, murine; conditions: mouse, L929 fibroblasts, 0.5 × 10^5 cells/well
Experimental: (§1) HepG2 cells (human hepatocellular carcinoma), VERO cells (African green monkey kidney), and J774.G8 macrophages (murine reticulosarcoma) were maintained in DMEM medium, supplemented with 10% FBS, 1% Pen/Str at 37 °C and 5% CO2 [70, 71]. For the cultivation of L929 fibroblasts (murine fibrosarcoma), RPMI 1640 medium without phenol red, supplemented with 2 mM L-glutamine, 10% FBS, and 1% Pen/Str, was used and maintained under the same conditions of temperature and CO2 as above.
(§2) J774.G8, VERO (10^5 cells/well), HepG2, L929 (0.5 × 10^5 cells/well) cells, and MPMs (3 × 10^5 cells/well) were centrifuged, resuspended in medium, plated in 96-well microplates, and incubated for 24 h under cultivation conditions. Subsequently, they were exposed to different concentrations of the compounds, serially diluted in medium to a final volume of 100 µL/well, and incubated for 24 h at 37 °C and 5% CO2. Cell viability was then assessed using the AB, and data were acquired by spectrophotometry. […] Untreated cells were used as negative controls, and cells exposed to the reference compound (MT) were used as positive controls. The Selectivity Index (SI) was calculated using the ratio SI = CC50 (mammalian cells)/IC50 (promastigote or amastigote forms of L. amazonensis).

[5] = Cytotoxicity assay (Alamar Blue, 24 h) on HepG2 cells; type: cell-based, human; conditions: human, HepG2 cells, 0.5 × 10^5 cells/well
Experimental: as §1, §2

[6] = Cytotoxicity assay (Alamar Blue, 24 h) on VERO cells; type: cell-based, African green monkey; conditions: African green monkey, VERO cells, 10^5 cells/well
Experimental: as §1, §2

[7] = test system: VERO cells; test: as above; type: cell-based, African green monkey; conditions: concentrations ≥ 300 μM
Experimental: as §1, §2

[8] = Cytotoxicity assay (Alamar Blue, 24 h) on J774.G8 macrophages; type: cell-based, murine; conditions: mouse, J774.G8 macrophages, 10^5 cells/well, read-out: CC50 J744.G8
Experimental: as §1, §2

[9] = Cytotoxicity assay (Alamar Blue, 24 h) on murine peritoneal macrophages; type: cell-based, Swiss Webster mice; conditions: male, Swiss Webster, mouse, murine peritoneal macrophages (MPMs, primary cells)
Experimental: Murine peritoneal macrophages—MPMs (primary cells)—were isolated from male Swiss Webster mice stimulated with 1 mL of 3% Brewer’s thioglycollate medium, administered intraperitoneally. After 96 h, the animals were euthanized, and the MPMs were collected by peritoneal lavage with approximately 10 mL of RPMI 1640 medium. The cell suspension was centrifuged at 382× g for 10 min, and the pellet was resuspended in medium supplemented with 5% FBS, 1% Pen/Str, and 2 mM L-glutamine. All cell cultures were maintained at 37 °C and 5% CO2 [73]. For the experiments, all cell types were cultured until confluency.
as §2

[10] = test system: ex vivo amastigote forms of L. amazonensis LTB0016 strain; test: Leishmanicidal activity assay on ex vivo amastigotes (Alamar Blue, 24 h); conditions: Leishmania amazonensis, 24 h, read-out: IC50 Ama.
From the text: Ex vivo amastigote forms of L. amazonensis (MHOM/BR/77/LTB0016) were harvested and purified from lesions of male BALB/c mice. For this, a suspension containing 10^6 amastigotes was inoculated subcutaneously into the intraplantar region of the hind paw. After 30 days, the animals were euthanized, and their paws were excised and rinsed in 70% ethanol. The epidermis and necrotic tissues were mechanically dissociated. Subsequently, the paws were placed in Petri dishes containing RPMI 1640 medium supplemented with 5% FBS and 2% Pen/Str. […] The supernatant was transferred to another tube, homogenized with a syringe, and centrifuged at 764× g for another 15 min. The supernatant was discarded, and the pellet was resuspended in RPMI 1640 medium [69].
Promastigotes were kept at 26 °C, whereas amastigotes were kept at 32 °C. After 24 h, parasite viability was assessed using the AB colorimetric method, and the data were analyzed using a spectrophotometer as previously described [74]. […] Wells with medium and without parasites were used as blanks, and wells with medium and untreated parasites were used as negative controls. MT was employed as the reference drug.

Structure (SMILES) | H2DCFDA MFI, Promastigotes High Population [1] | H2DCFDA MFI, Promastigotes Low Population [1] | VIROS, Promastigotes Low Population ([1]; MT/MC) | VIROS, Promastigotes High Population ([1]; MT/MC (fold of control)) | H2DCFDA MFI, Ex Vivo Amastigotes High Population [2] | H2DCFDA MFI, Ex Vivo Amastigotes Low Population [2] | VIROS, Ex Vivo Amastigotes High Population ([2]; MT/MC) | VIROS, Ex Vivo Amastigotes Low Population ([2]; MT/MC) | IC50 [3] [µM] | CC50 at 24 h [4] [µM] | CC50 at 24 h [5] [µM] | CC50 at 24 h [6] [µM] | viability of VERO cells [7] | CC50 at 24 h [8] [µM] | CC50 at 24 h ([9]; 3 × 10^5 cells/well) [µM] | viability at 24 h ([9]; exposures up to 70 μM) [%] | IC50 [10] [µM]
CCCCCC[C@H]1C(=O)O[C@H](C)[C@H](NC(=O)c2cccc(NC=O)c2O)C(=O)O[C@@H](C)[C@@H]1OC(=O)CC(C)C [AA, Antimycin A, reference compound] | 890,705.80 | 19,775.40 | 0.52 ± 0.13 | 2.07 ± 0.23 | 143,227.25 | 3011.23 | 0.60 ± 0.53 | 1.14 ± 0.38 | – | – | – | – | – | – | – | – | –
CCCCCCCCCCCCCCCCOP(=O)([O-])OCC[N+](C)(C)C [Miltefosine, miltefosine, reference compound] | – | – | – | – | – | – | – | – | 23.2 ± 2.55 | 113 ± 18.2 | 181 ± 11.3 | 168 ± 2.75 | eliminated the viability | 156 ± 8.48 | 103 ± 4.77 | > 50 | 0.97 ± 0.4
